Calls of active or inactive are those of the source. The rule behind the calls is not given here.
What was measured:
[1] = target: T1, Cyclin-dependent kinase 12/13 (Homo sapiens) (UniProt Q14004+Q9NYV4); experiment: Inhibition of CDK12/13 in human jurkat cells assessed as reduction in RNA polymerase 2 CTD phosphorylation at Ser2 residue at 0.5 uM measured after 6 hrs by immunoblotting analysis; type: cell-based
[2] = target: Ribosomal protein S6 kinase alpha-2 (Homo sapiens) (UniProt Q15349); experiment: Inhibition of ADP(ATP)-biotin probe binding to RSK3 domain 1 in human Kelly cells at 1 uM incubated for 6 hrs by KiNativ profiling analysis; type: cell-based
Sequence of Ribosomal protein S6 kinase alpha-2 (Homo sapiens) (Q15349 whole entry, the tested form may be a part): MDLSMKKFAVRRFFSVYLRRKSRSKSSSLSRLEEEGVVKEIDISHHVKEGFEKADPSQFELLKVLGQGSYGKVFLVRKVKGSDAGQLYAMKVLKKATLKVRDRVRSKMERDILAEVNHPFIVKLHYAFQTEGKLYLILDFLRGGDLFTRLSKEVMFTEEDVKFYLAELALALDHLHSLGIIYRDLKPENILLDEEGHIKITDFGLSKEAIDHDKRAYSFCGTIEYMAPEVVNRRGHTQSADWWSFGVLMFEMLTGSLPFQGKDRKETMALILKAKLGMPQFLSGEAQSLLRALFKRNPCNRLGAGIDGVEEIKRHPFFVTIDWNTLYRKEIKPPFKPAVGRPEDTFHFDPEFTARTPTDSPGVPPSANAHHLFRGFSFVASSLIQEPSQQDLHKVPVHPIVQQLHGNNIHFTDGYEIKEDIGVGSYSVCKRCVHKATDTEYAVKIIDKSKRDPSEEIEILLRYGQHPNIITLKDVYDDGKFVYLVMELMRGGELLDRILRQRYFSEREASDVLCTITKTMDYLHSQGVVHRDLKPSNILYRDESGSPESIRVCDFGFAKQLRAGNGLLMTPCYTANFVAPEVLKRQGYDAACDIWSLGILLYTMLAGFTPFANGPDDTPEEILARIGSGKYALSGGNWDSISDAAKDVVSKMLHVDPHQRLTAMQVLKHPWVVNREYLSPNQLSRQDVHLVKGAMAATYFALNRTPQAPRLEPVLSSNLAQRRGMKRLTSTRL

[3] = target: T1, Cyclin-dependent kinase 12/13 (Homo sapiens); experiment: Inhibition of CDK12/13 in human jurkat cells assessed as reduction in RNA polymerase 2 CTD phosphorylation at Ser2 residue at 2.5 uM measured after 6 hrs by immunoblotting analysis; type: cell-based
[4] = target: Cyclin-dependent kinase 7 (Homo sapiens) (UniProt P50613); experiment: Inhibition of ADP(ATP)-biotin probe binding to CDK7 in human Kelly cells at 1 uM incubated for 6 hrs by KiNativ profiling analysis; type: cell-based
Sequence of Cyclin-dependent kinase 7 (Homo sapiens) (P50613 whole entry): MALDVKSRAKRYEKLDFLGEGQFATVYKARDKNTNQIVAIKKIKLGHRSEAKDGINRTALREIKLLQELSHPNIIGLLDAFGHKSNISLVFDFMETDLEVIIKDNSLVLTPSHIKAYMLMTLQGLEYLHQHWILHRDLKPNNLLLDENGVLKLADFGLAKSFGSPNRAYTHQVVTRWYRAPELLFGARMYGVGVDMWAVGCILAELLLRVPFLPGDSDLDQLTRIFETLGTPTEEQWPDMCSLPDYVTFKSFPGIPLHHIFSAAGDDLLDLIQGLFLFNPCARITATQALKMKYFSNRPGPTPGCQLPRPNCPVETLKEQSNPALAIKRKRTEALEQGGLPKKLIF

[5] = Metabolic stability in mouse liver microsomes assessed as half life; type: ADME, Microsome
[6] = Downregulation of RNA polymerase 2 in human Jurkat cells at 0.5 uM measured after 6 hrs by immunoblotting analysis; type: functional
[7] = target: T1, Cyclin-dependent kinase 12/13 (Homo sapiens); experiment: Inhibition of CDK12/13 in human Jurkat cells assessed as BRCA2 gene expression at 0.5 to 1 uM incubated for 4 hrs by RT-qPCR analysis; type: cell-based; set-up: scale not given: the % may be the effect or the level left; details: dose 0.5-1 µM
[8] = Cmax in Swiss albino mouse at 3 mg/kg, iv measured upto 24 hrs by LC-MS/MS analysis; type: ADME, organism-based; set-up: route intravenous, dose 3 mg/kg, time <=24; details: in vivo
[9] = target: Calcium/calmodulin-dependent protein kinase type IV (Homo sapiens) (UniProt Q16566); experiment: Inhibition of ADP(ATP)-biotin probe binding to CaMK4 in human Kelly cells at 1 uM incubated for 6 hrs by KiNativ profiling analysis; type: cell-based
Sequence of Calcium/calmodulin-dependent protein kinase type IV (Homo sapiens) (Q16566 whole entry): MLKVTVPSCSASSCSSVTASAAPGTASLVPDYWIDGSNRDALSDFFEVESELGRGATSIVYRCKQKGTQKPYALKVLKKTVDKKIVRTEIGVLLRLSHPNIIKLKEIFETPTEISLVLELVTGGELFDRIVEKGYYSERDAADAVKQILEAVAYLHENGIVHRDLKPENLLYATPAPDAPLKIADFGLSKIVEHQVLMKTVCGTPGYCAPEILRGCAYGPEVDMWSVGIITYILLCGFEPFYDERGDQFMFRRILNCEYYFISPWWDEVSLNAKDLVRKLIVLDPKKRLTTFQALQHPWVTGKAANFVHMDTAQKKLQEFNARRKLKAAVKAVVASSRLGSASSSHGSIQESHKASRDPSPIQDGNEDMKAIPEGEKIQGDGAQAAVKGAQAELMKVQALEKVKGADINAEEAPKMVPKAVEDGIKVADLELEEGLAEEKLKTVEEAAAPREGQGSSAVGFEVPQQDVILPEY

[10] = target: T1, Cyclin-dependent kinase 12/13 (Homo sapiens); experiment: Inhibition of THZ1-biotin binding from CDK12/13 in human Jurkat cells at 500 nM incubated for 6 hrs by CyclinK antibody based competitive pull down assay; type: cell-based
[11] = Toxicity in nude mouse xenografted with human TC71 cells assessed as body weight loss at 10 mg/kg, ip for 21 days; type: organism-based; details: in vivo, 504 h, time 21 day
[12] = Downregulation of RNA polymerase 2 CTD phosphorylation at Ser7 residue in human Jurkat cells at 0.5 uM incubated for 6 hrs by immunoblotting analysis; type: functional
[13] = Downregulation of RNA polymerase 2 in human Jurkat cells at 5 uM measured after 6 hrs by immunoblotting analysis; type: functional
[14] = target: T2, Ribosomal protein S6 kinase alpha-3 (Homo sapiens, UniProt P51812); experiment: Inhibition of human RSK2 by Invitrogen ADAPTA or Z'LYTE biochemical kinase assay
T2 sequence (P51812 whole entry): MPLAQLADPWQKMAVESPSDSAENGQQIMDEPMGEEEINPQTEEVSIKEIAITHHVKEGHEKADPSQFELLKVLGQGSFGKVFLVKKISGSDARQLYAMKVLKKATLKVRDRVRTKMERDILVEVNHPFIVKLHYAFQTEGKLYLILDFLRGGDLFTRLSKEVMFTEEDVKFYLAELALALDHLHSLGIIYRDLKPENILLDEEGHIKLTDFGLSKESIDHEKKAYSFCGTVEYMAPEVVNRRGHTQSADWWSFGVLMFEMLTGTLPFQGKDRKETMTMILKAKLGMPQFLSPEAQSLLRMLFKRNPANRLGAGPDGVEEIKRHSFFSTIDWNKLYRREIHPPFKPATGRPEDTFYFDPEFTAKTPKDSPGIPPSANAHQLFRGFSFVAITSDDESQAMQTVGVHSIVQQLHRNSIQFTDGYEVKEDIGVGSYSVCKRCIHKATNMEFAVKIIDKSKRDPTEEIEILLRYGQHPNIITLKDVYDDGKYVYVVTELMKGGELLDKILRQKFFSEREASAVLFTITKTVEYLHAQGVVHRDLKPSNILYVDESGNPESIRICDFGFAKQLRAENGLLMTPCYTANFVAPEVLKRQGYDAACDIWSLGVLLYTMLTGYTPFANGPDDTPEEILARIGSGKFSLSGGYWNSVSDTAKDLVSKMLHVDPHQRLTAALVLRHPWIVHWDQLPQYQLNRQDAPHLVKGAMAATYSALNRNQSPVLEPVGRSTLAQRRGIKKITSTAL

[15] = target: Cyclin-dependent kinase 13/Cyclin-K (Homo sapiens, UniProt Q14004); experiment: Inhibition of human recombinant CDK13/CyclinK assessed as reduction in substrate phosphorylation using His-c-Myc as substrate preincubated with enzyme for 5 mins followed by substrate addition for 15 mins in presence of [gamma 32P-ATP] by radioactive kinase assay; type: protein-complex assay
[16] = Selectivity ratio of IC50 for human Kelly cells harboring CDK12 C1039F mutant to IC50 for human Kelly cells harboring wild type CDK12; type: functional
[17] = target: T1, Cyclin-dependent kinase 12/13 (Homo sapiens); experiment: Inhibition of CDK12/13 in human jurkat cells assessed as reduction in RNA polymerase 2 CTD phosphorylation at Ser2 residue at 5 uM measured after 6 hrs by immunoblotting analysis; type: cell-based
[18] = target: Serine/threonine-protein kinase 16 (Homo sapiens) (UniProt O75716); experiment: Inhibition of ADP(ATP)-biotin probe binding to MPSK1 in human Kelly cells at 1 uM incubated for 6 hrs by KiNativ profiling analysis; type: cell-based
Sequence of Serine/threonine-protein kinase 16 (Homo sapiens) (O75716 whole entry): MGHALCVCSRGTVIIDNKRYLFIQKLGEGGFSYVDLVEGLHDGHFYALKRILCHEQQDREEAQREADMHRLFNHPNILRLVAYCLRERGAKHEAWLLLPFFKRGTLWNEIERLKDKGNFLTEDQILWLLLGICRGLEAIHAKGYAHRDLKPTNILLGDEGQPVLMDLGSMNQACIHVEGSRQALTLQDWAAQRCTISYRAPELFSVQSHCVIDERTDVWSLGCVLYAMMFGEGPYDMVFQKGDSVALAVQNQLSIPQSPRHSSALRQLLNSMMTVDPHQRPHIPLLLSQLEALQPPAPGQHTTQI

[19] = target: Cyclin-dependent kinase 7 (Homo sapiens) (UniProt P50613); experiment: Inhibition of THZ1-biotin binding from CDK7 in human Jurkat cells at 500 nM incubated for 6 hrs by CyclinH antibody based competitive pull down assay; type: cell-based
[20] = Downregulation of RNA polymerase 2 CTD phosphorylation at Ser7 residue in human Jurkat cells at 1 uM incubated for 6 hrs by immunoblotting analysis; type: functional
[21] = Downregulation of RNA polymerase 2 CTD phosphorylation at Ser5 residue in human Jurkat cells at 1 uM incubated for 6 hrs by immunoblotting analysis; type: functional
[22] = target: T2, Ribosomal protein S6 kinase alpha-3; experiment: Inhibition of ADP(ATP)-biotin probe binding to RSK2 domain 1 in human Kelly cells at 1 uM incubated for 6 hrs by KiNativ profiling analysis; type: cell-based
CDK12/Cyclin K = CDK12/Cyclin K (Homo sapiens, UniProt Q9NYV4); experiment: Inhibition of human recombinant CDK12/CyclinK assessed as reduction in substrate phosphorylation using His-c-Myc as substrate preincubated with enzyme for 5 mins followed by substrate addition for 15 mins in presence of [gamma 32P-ATP] by radioactive kinase assay; type: protein-complex assay
Sequence of CDK12/Cyclin K (O75909 whole entry): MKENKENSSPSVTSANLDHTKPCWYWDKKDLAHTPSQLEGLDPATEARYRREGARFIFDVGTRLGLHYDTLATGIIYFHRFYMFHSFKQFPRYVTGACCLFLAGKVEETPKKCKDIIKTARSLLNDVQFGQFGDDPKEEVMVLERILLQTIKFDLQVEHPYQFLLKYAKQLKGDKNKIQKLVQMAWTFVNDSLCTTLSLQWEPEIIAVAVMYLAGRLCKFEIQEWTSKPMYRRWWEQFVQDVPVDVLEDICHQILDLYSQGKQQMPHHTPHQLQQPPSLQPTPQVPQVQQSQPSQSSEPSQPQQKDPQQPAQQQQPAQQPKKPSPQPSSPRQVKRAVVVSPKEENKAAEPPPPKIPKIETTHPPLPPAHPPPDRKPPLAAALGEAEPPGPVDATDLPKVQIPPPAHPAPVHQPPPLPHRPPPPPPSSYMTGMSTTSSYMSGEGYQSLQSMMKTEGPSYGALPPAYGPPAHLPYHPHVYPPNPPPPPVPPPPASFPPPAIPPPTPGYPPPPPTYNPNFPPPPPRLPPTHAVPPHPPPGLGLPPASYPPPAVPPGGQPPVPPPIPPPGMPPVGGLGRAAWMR
Sequence of CDK12/Cyclin K (Q9NYV4 whole entry): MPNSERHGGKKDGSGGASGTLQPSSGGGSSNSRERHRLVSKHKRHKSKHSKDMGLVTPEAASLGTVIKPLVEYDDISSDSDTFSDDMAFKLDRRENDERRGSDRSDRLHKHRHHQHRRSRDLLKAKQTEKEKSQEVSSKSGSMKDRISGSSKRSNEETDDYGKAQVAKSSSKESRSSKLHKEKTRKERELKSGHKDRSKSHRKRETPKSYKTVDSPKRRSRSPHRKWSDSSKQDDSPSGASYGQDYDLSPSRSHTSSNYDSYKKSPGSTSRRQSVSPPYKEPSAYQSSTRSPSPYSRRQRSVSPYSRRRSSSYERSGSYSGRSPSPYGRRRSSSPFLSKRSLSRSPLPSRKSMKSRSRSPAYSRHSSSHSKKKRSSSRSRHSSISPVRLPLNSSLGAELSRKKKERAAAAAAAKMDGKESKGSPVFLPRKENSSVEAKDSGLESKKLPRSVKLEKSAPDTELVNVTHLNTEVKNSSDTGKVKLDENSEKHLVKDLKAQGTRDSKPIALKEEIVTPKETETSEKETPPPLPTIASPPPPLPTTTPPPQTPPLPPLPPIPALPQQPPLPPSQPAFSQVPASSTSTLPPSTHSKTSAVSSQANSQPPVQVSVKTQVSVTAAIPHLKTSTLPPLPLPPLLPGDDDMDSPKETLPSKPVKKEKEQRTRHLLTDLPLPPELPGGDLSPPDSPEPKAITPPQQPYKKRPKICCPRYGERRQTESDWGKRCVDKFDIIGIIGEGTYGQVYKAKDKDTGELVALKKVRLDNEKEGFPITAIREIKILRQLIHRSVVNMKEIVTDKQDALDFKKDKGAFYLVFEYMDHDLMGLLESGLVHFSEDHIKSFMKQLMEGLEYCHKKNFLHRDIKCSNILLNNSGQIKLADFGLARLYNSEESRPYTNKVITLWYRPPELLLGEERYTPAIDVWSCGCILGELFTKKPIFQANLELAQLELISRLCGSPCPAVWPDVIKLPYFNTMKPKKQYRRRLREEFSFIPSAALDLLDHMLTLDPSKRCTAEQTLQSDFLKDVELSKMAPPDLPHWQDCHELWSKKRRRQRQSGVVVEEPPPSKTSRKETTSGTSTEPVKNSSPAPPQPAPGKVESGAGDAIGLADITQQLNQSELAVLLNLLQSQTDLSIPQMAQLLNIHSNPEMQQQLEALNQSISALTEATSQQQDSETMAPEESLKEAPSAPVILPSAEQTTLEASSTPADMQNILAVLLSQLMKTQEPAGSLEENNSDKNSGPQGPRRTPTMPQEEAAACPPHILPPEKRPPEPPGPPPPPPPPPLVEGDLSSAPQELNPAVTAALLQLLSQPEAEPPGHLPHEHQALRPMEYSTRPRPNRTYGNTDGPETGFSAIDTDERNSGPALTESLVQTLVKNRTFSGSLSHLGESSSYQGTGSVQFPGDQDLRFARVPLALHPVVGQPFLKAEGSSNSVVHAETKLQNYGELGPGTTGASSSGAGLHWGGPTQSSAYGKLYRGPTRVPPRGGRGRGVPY

[23] = target: DNA-dependent protein kinase catalytic subunit (Homo sapiens, UniProt P78527); experiment: Inhibition of ADP(ATP)-biotin probe binding to DNAPK in human Kelly cells at 1 uM incubated for 6 hrs by KiNativ profiling analysis; type: cell-based

SMILES: CN(C)C/C=C/C(=O)Nc1ccc(O[C@@H]2CCC[C@@H](Nc3ncc(Cl)c(-c4c[nH]c5ccccc45)n3)C2)cc1
- inhibition [1]: 45%
- inhibition [2]: 41.6%
- inhibition [3]: 87%
- inhibition [4]: 39.2%
- t1/2 [5]: 8 min
- inhibition at 0.5 µM [6]: 0%
- Activity [7]: 30%
- Cmax [8]: 1511 ng/mL
- inhibition [9]: 38.2%
- inhibition [10]: Active
- Activity [11]: Toxic
- inhibition at 0.5 µM [12]: 0%
- inhibition at 5 µM [13]: 38%
- IC50 [14]: 4.5 µM
- IC50 [15]: 283 nM
- Ratio IC50 [16]: 5
- inhibition [17]: 89%
- inhibition [18]: 42.4%
- inhibition [19]: inactive
- inhibition at 1 µM [20]: 41%
- inhibition at 1 µM [21]: 32%
- inhibition [22]: 46%
- IC50 (CDK12/Cyclin K): 156 nM
- inhibition [23]: 38.3%

From ChEMBL document CHEMBL4828703, “Structure-activity relationship study of THZ531 derivatives enables the discovery of BSJ-01-175 as a dual CDK12/13 covalent inhibitor with efficacy in Ewing sarcoma” (Eur J Med Chem, 2021)
